Values joined by “and” are separate entries in the source; they are usually repeats but may differ in a detail not shown here. Identical values can stand only once.
Assays:
[1] = tested on: peripheral blood T cells (CD3), B cells (CD20), monocytes (CD14), lymphocytes; assay: Leukocyte repopulation in peripheral blood of renal allograft patients; assay type: in vivo, human
Method: (§1) Patients and Protocol Therapy. Primary renal allograft patients received a non-HLA-identical kidney from either cadaveric or living donors. Subjects were 18-60 years of age and had between 1-6 MHC antigen mismatches with the kidney allograft. Kidney transplant recipients were given CAMPATH-1H (Alemtuzumab, ILEX Oncology, Inc.) at day −1 and day 0 of transplant (40 mg total dose), followed by long-term treatment with rapamycin at levels averaging 9 ng/ml. […] Another […] patients were enrolled in the control arm. The latter group received anti-CD25 (Basiliximab, Novartis, East Hanover, N.J.) induction therapy, along with conventional long-term immunosuppressants (CsA, steroids, and MMF). All patients gave written informed consent to participate in the study. The protocol was given approval by the Institutional Review Board at the University of Wisconsin-Madison.
In renal allograft recipients treated with CAMPATH-1H, immunodepletion is profound, with a 2-3 log reduction in peripheral lymphocytes at the outset (See, e.g., Brett et al., Immunology 1996, 88,13). […] Although monocytes and B cells recovered to baseline numbers by 3 and 12-months, respectively, T cell levels were slow to repopulate, recovering to approximately 50% baseline by 36 months. CD4+ and CD8+ T cell subsets were at an approximate 2:1 ratio pre-transplant, yet CD8+ T cells recovered at a relatively constant 1:1 ratio with CD4+ cells in CAMPATH-treated patients (See FIG. 6b).

[2] = tested on: CD3+, CD4+ and CD8+ recipient T cells; assay: CFSE-MLR proliferation assay with recipient PBMC; assay type: cell-based, human; conditions: patient UW19, response to third party antigen, 12 months
From the text: To examine the proliferative response of host T cells to donor antigen, purified responder PBMC's were labeled with CFSE. In an effort to keep the APC source constant, only PBMC's from living donors and third parties were used.
For simplicity, the loss of CFSE intensity was designated “percent proliferation” or “percent CFSE low” (e.g., even though, generally, this is a measure of the actual number of daughter cells initially involved in the response).

[3] = tested on: recipient T cells (alloreactivity to donor antigen); assay: IFN-γ kinetics assay in the 5-day CFSE-MLR of renal allograft patients; assay type: cell-based, human; set-up: key to IFN-γ assay: HYPO: hyporesponsive; EQL: equal response to donor and third-party antigen; HYPR: hyperresponsive to donor Ag; UN: no response to donor Ag; conditions: for IFN-γ assay: per patient, month 12, response to donor versus third-party antigen
Method: (§2) CFSE-MLR Assay. Blood was collected at 12 months post-transplant, and PBMC's purified by Ficoll gradient separation. Recipient PBMC's were labeled with 5.0 μM CFSE for 10 minutes at 37° C., upon which 1 ml of cold FCS was added to stop further staining. Cells were then washed once in complete media, and used as responder cells in an MLR in which both proliferation and kinetics of cytokine expression were measured in response to irradiated donor, third party, or autologous stimulator PBMC's. The number of class I and class II MHC mismatches between host/donor and host/third party were kept as consistent as possible with the available third parties from which to choose. A total of 2×10^5 responder and 2×10^5 stimulator cells/well were added to a 96-well round-bottom plate, in a total of 200 μl/well complete RPMI with 15% FCS. Cultures were set up in quintuplet wells such that the supernatants could be collected every 24 hours during the 5-day MLR. On day 5, T cell proliferation was measured by flow cytometry using PE-conjugated anti-CD3, CD4, and CD8 antibodies. Live cells were gated out by PI, and subsequent PE-positive cells in the lymphocyte gate were analyzed for their loss of CFSE intensity. On average, 4000 live lymphocytes were acquired for analysis using CellQuest software and a FACSCAN flow cytometer. Proliferation was analyzed using FlowJo software (Tree Star, Inc.).
Cytokine Kinetics Test. Cytokine expression levels in the MLR supernatants were measured using a multi-cytokine fluorescent bead detection system (BeadLyte, Upstate, Inc.). Fifty μl of Day 1-5 supernatants were utilized to analyze the cytokines: IL-1β, IL-2, IL-4, IL-6, IL-8, IL-10, IL-12, GM-CSF, TNF-α, and IFN-γ.
Additional information was obtained from the 5-day CFSE-MLR by collecting supernatants at 24-hour intervals and analyzing them for the expression of IFN-γ. The kinetic patterning gave a comprehensive picture of alloreactivity which could be categorized into 4 distinct groups: 1) patients who responded equally well to donor and third party antigen, 2) those who were hypo-responsive to donor, 3) those who were hyper-responsive to donor, and 4) those who were completely unresponsive to donor as opposed to third party antigen (See FIG. 4). […] Statistically, there was no bias in the hypo- (P=0.51) or hyper-responsive (P=0.73) groups using the 1-tailed Fisher's exact test. […] Therefore, the donor unresponsiveness of these 4 patients cannot simply be attributed to low T cell counts. Taken together, the present invention provides that CAMPATH-rapamycin immunotherapy promotes T cell unresponsiveness in at least a subset of renal allograft recipients.

[4] = tested on: recipient T cells (alloreactivity to donor antigen); assay: GM-CSF kinetics assay in the 5-day CFSE-MLR of renal allograft patients; assay type: cell-based, human; set-up: key: HYPO: hyporesponsive; EQL: equal response to donor and third-party antigen; HYPR: hyperresponsive to donor Ag; UN: no response to donor Ag; conditions: per patient, month 12, response to donor versus third-party antigen
Method: as §2, with “Cultures were set up in quintuplet wells such that the supernatants could be collected every 24 hours during the 5-day MLR.” left out, “On average, 4000 live lymphocytes were acquired for analysis using CellQuest software and a FACSCAN flow cytometer.” left out
Cytokine Kinetics Test. Cytokine expression levels in the MLR supernatants were measured using a multi-cytokine fluorescent bead detection system (BeadLyte, Upstate, Inc.). […]

[5] = tested on: kidney allograft; assay: Protocol kidney biopsy after transplantation; assay type: in vivo, human; conditions: for M12 biopsy: kidney biopsy 12 months after transplantation, per patient
Method: as §1
Among the 15 CAMPATH-treated recipients, 10 used a single drug (9 with Sirolimus and 1 with Tacrolimus) for their maintenance immunosuppressive therapy. […] In the control group, all 8 patients were treated with a combination of CsA, MMF and prednisone for their immunosuppressive maintenance.

[6] = tested on: peripheral blood T cells (CD3), B cells (CD20), monocytes (CD14), lymphocytes; conditions: renal allograft recipients, at the outset; cited from earlier work
[7] = IFN-γ kinetics, 12 months, n=15 Campath, n=8 Control
[8] = maintenance Tacrolimus, prednisone

Campath: humanized monoclonal antibody that binds CD52; induction therapy followed by long-term rapamycin
T cell levels recovered ([1]; by 36 months): approximately 50 % baseline
lymphocyte repopulation (total lymphocyte count versus pre-transplant) ([1]; month 12 post-transplant): below 50 % baseline
time at which B cells recovered to baseline numbers ([1]; peripheral blood, 29 patients): ≤ 12 months
time at which monocytes recovered to baseline numbers ([1]; peripheral blood, 29 patients): ≤ 3 months
percent proliferation of CD3+ cells [2]: 6.7%
percent proliferation of CD4+ cells [2]: 7.1%
percent proliferation of CD8+ cells [2]: 5.1%
Donor-specific nonresponsiveness (number of patients) [3, 7]: 4
Equal response (number of patients) [3, 7]: 1
Hyper-response (number of patients) [3, 7]: 2
Hypo-response (number of patients) [3, 7]: 8
Hyper-response (number of patients) ([3]; IFN-γ kinetics, 12 months, n=15 Campath, n=8 Control, listed as CAMPATH): Two
IFN-γ assay ([3]; maintenance Sirolimus): HYPO (3×) and HYPR (2×) and UN (3×) and EQL
IFN-γ assay ([3]; maintenance Sirolimus, MMF): HYPO
IFN-γ assay ([3]; maintenance Tacrolimus): HYPO
IFN-γ assay ([3]; maintenance Tacrolimus, MMF): HYPO
IFN-γ assay ([3]; maintenance Tacrolimus, MMF, prednisone): HYPO
IFN-γ assay [3, 8]: UN
GM-CSF assay [4]: UN (4×) and HYPO (7×) and HYPR (2×) and EQL^a and EQL
M12 biopsy [5]: normal histology
M12 biopsy ([5]; maintenance Sirolimus): Normal
M12 biopsy ([5]; maintenance Sirolimus, MMF): C4d+, humoral rejection
M12 biopsy ([5]; maintenance Tacrolimus): Normal
M12 biopsy ([5]; maintenance Tacrolimus, MMF): Normal
M12 biopsy [5, 8]: Acute rejection Banff 1A
M06 biopsy ([5]; kidney biopsy at month 6, M12 biopsy declined): M06 Biopsy Normal Declined M12
reduction in peripheral lymphocytes [6]: 2-3 log

Reference: US20070202085A1, “Systems and methods for monitoring immune responses and predicting outcomes in transplant recipients” (Renovar Incorporated, priority 2006, published 2007)
